In patent publication US11453642B2, “Oxygenated amino- or ammonium-containing sulfonic acid, phosphonic acid and carboxylic acid derivatives and their medical use” (GRI BIO, INC., priority 2011, dated 2022):

Tested on: Akt phosphorylation on Ser473
Assay: Inhibition of activation of Akt kinase (phospho-Akt Ser473 assay in RBL-2H3 cells)
Format: cell-based, Rat
Settings: IgE and antigen 15 min, normalized to total Akt
Source text: The mast cell degranulation assay using the RBL-2H3 cell line (see example 6) was also used to determine the status of the PI3K/Akt axis. Activation of PI3K leads to production of PIP3 on the cytosolic side of the lipid bilayer. Akt is recruited to the PIP3 domain and subsequently activated by phosphorylation on residues Ser473 and Thr308. (Franke et al., Cell 81:727-736, (1995)). Once recruited to the membrane, it is phosphorylated and activated by other kinases (Hemmings, Science 275:628-630 (1997); Hemmings, Science 276:534 (1997); Downward. Science 279:673-674 (1998); Alessi et al., EMBO J. 15:6541-6551 (1996)). Western blotting of the phosphorylated Ser473 residue on Akt (phospho-Akt Ser473) is widely used to assess the level of activation of the PI3K/Akt axis.
All buffers and solutions used for the phosphor-Akt Ser473 assay were from Meso Scale Discovery. Tris Lysis Buffer consisted of 150 mM NaCl, 20 mM Tris, pH 7.5, 1 mM EDTA, 1 mM EGTA and 1% Triton-X-100. Complete Tris Lysis Buffer was prepared prior to use by addition of protease inhibitor, phosphatase inhibitors and PMSF. The 10× Tris Wash Buffer consisted of 500 mM Tris, pH 7.5, 1.5 M NaCl and 0.2% Tween-20. Blocker A was made up of bovine serum albumin in Tris Wash Buffer, Read Buffer T was used according to manufacturer's instructions. The Whole Cell Lysate Kits used were phospho-Akt Ser473 (K111000, Lot K0011749) and total ERK1/2 (K11107D, Lot K0011698) as a loading control.
Protein assay: protein concentration was determined using the BCA (bicinchoninic acid) Protein Assay kit according to the manufacturer's instructions. Briefly, duplicate 10 μl samples of bovine serum albumin (BSA) standards, blank and lysates were incubated in a 96-well plate with 0.2 ml working reagent for 30 min at 37° C. Plates were cooled to room temperature for 5 min and absorbance at 562 nm was measured in a multi-mode plate reader. Protein concentrations were calculated using FlexStation 3 software (SoftMax Pro version 5.3), Protein concentration of lysates was determined from a standard curve (BSA) using a linear curve fit.
Phosphoprotein assay: protein phosphorylation was determined using the MULTI-SPOT® Assay System (Meso Scale Discovery), providing simultaneous detection of phosphorylated and total proteins. Briefly, capture antibodies against phosphorylated and total protein are patterned on distinct spots in the same well of 96-well plates. Sandwich immunoassay and electrochemiluminescence detection technology are combined to measure intensity of the emitted light from phosphorylated and total protein spots. Analysis of phosphor-Akt Ser473 was performed according to the manufacturer's instructions. The optimal amount of protein was determined at 5 μg lysate per well for ERK1/2 and 10 μg/well for phospho-Akt Ser473, Plates were blocked with 25 μl/well Blocker A for 1 h at room temperature with gentle agitation. During this time, the lysates were thawed and diluted to the desired protein concentration in complete Tris Lysis Buffer. Plates were washed four times in Tris Wash Buffer and 25 μl lysate per well added. Plates were incubated for 1-3 h at room temperature with agitation according to the manufacturer's recommendations. Plates were washed four times with Tris Wash Buffer, followed by addition of 25 μl/well of the respective detection antibody and incubation for 1 h at room temperature, with agitation. After a final four washes with Tris Wash Buffer 150 μl/well, Read Buffer T was added and plates read on a SECTOR Imager 6000 plate reader.
The mean background signal from each plate was subtracted from averaged raw data. The amount of total protein phosphorylated was expressed as % phosphoprotein according to the manufacturer's (Meso Scale Discovery) instructions.
Levels of phospho-Akt Ser473 were determined in IgE sensitized and antigen stimulated cells after treatment without (positive control) or with 1, 5 and 25 μM test compound and normalized to levels of total Akt.

SMILES	Level of phospho-Akt Ser473 (1 μM) [% positive control]	Level of phospho-Akt Ser473 (5 μM) [% positive control]	Level of phospho-Akt Ser473 (25 μM) [% positive control]
CCCCCCCCCCCCCCCCN(C)CC(O)CS(=O)(=O)O (stereo not drawn) [Compound 1a, 2-hydroxy-3-(N-methylhexadecylammonio)propane-sulfonate]	80.8 ± 17.9	62.4 ± 16.1	9.7 ± 4.9
CCCCCCCCCCCCN(C)CC(O)CS(=O)(=O)O (stereo not drawn) [Compound 1c, 2-hydroxy-3-(N-methyldodecylammonio)propanesulfonate]	119.7 ± 35.7	67.9 ± 17.3	17.4 ± 6.4
